Measurements reported in US20120190615A1, “METHODS AND COMPOSITIONS FOR INDUCING WEIGHT LOSS” (Sanford-Burnham Medical Research Institute, priority 2011, published 2012).
Where “and” joins values, the source holds several entries; their conditions need not be identical. Identical values can stand only once.

What was measured:
[1] = system: WtB6 mice fed a high fat diet; assay: High fat diet six weeks with two weekly OX injections, obesity resistance (Example 12); format: in vivo
Text: To confirm that OX prevents obesity under conditions of caloric excess, a high fat diet (HFD) was fed to WtB6 mice for six weeks. Mice received two weekly OX or PBS injections (n=6/group). Food intake and body weight of both groups were monitored weekly. […] OX-injected animals, however, resisted weight gain, which became apparent during the second wk of therapy (FIG. 28B). At the conclusion of the treatment period, OX-treated mice were visibly lean (FIG. 28C, D) and weighed 7 g±1.2 g less than the control group (FIG. 28B, Table 3). […] Total visceral fat was reduced by more than 60%. Visceral fat in the OX-injected group was noticeably darker in color relative to control tissue (FIG. 28E, F).
Further, the respiratory quotient of OX-injected group was 10% lower than the vehicle injected group, indicating higher fat oxidation capacity (FIG. 28J). […] To determine whether systemic OX injection induces BAT activity, mice with OX (10 mg/kg) or PBS were compared, using relative UCP-1 expression as an indicator for BAT activity 24-hours post-injection.

[2] = system: wild-type C57BL6 mice fed a high fat diet; assay: High fat diet six weeks with OX once per day, body weight and NMR body composition (Example 11); format: in vivo; conditions: HFD six weeks
Procedure: To confirm these findings and investigate the role for OX in energy metabolism and to prevent obesity, wild-type C57BL6 mice were fed a high fat diet (HFD) for six weeks. During this period, half of the mice received OX intraperitoneally once per day, while the other half was injected with saline. Food intake and body weight of both groups were monitored weekly. OX-treated mice ate more, resisted weight gain, were visibly lean, and accumulated less fat. […] Fat and lean mass were determined by subjecting mice to nuclear magnetic resonance (NMR) (Bruker, The Woodlands, Tex., United States) following a four-hour fast. OX therapy had no impact on either the lean mass or total fluid content. FIG. 27 illustrates these findings. Weekly energy intake, cumulative energy consumed, body weight gain over six weeks, and differences in body size between the two groups of mice are depicted.

[3] = system: primary brown preadipocytes; assay: Differentiation of primary brown preadipocytes (Oil Red O); format: cell-based, mice
Text: To assess differentiation of primary brown adipocytes, iBAT preadipocytes were isolated from 1-day-old mice and then differentiated in the presence of OX. Differentiation was confirmed by Oil Red O staining which visualizes lipid accumulation (FIG. 7). […] Taken together. OX activates a full program of brown fat adipogenesis by suppressing adipogenic inhibitors, including BAT regulators, elevating mitochondrial biogenesis and oxygen consumption, and inducing uncoupled respiration.
To investigate whether lack of OXR1 impaired BAT differentiation potential, primary brown preadipocytes from OXR1 knockout mice were isolated and differentiated. Generation of wild-type primary brown preadipocyte cell lines was derived from newborn wild-type mice as described previously by Klein et al. (Bioessays, 24: 382-388, 2002), which is hereby incorporated by reference in its entirety. Brown preadipocytes isolated from C57BL-6 mice served as positive control. All cell lines were maintained in Dulbecco's modified […] medium (DMEM), high glucose, supplemented with 10% FBS at 37° C. in a 5% CO2 environment. To induce adipogenesis, the cells were treated for 3 days with either BMP7 or 100 nM OX, at which time they were confluent. Cells were then incubated in adipogenic medium containing 0.125 mM indomethaein, […] dexamethazone, and […] 3-isobutyl-1-methyxanthine (IBMX) supplemented by 20 nM insulin as described by Tseng et al., (Nature, 454: 1000-1004, 2008) which is hereby incorporated by reference in its entirety.

C3H10T1/2 cells = assay: Oxygen consumption / uncoupled respiration of cultured mesenchymal stem cells; format: cell-based, mouse
Text: To determine whether the increased respiration was uncoupled from ATP synthesis, oligomycin-insensitive respiration was first assayed as a measure of uncoupled respiration. Oligomycin inhibits F1 ATP synthetase to suppress only oxidative phosphorylation-associated respiration.

obese wild type B6 mice = assay: Reversal of diet-induced obesity, OX twice weekly for 4 wks after 17 weeks HFD (Example 13); format: in vivo
Procedure: To confirm that systemic OX therapy induces weight loss in obese mice, wild type B6 mice were fed a HFD for 17 weeks and treated either with OX (10 mg/kg) or PBS vehicle twice weekly for 4 wks (n=6 mice/group). […] The OX-injected group began losing body weight from week 1. At the end of the 4-week treatment regimen, the OX-injected population appeared considerably leaner than the vehicle-injected controls, and the former had lost about 10 g body weight, as shown in FIG. 29A. […] Enhancement of energy expenditure was not due to any increase in physical activity (FIG. 29C).
To evaluate changes associated with weight loss, OX-treated and untreated mice were compared at autopsy. Untreated mice fed a high fat diet had developed fatty livers, which were visibly paler in color than those from OX-treated mice (FIG. 29E).

[4] = HFD six weeks, two weekly injections
[5] = end of 4-week treatment, OX 10 mg/kg twice weekly

orexin-A (EPLPDCCRQKTCSCRLYELLHGAGNHAAGILTL) [OX, human orexin A, cat; No. 24470, Anaspec]
% body fat [1, 4]: 15% and 15 ± 1.1%
Fat mass [1, 4]: 3.4 ± 0.4
Fluid content [1, 4]: 7.7 ± 1.5
Lean mass [1, 4]: 18.7 ± 1.1
Lean mass-fat mass ratio [1, 4]: 5.5 ± 0.3
iBAT UCP1 expression ([1]; OX 10 mg/kg, 24-hours post-injection): higher UCP1 levels than controls
body weight less than the control group ([1]; at the conclusion of the treatment period): 7 g
oxygen consumed, more than the control group ([1]; calorimetric measurements): 15%
respiratory quotient, lower than the vehicle injected group ([1]; calorimetric measurements): 10%
reduction of total visceral fat ([1]; end of the study): more than 60%
reduction of whole body fat mass ([1]; end of the study): 50%
physical activity ([1]; infrared monitoring, two weeks): not more physically active
increase in twenty-four hour energy expenditure ([1]; relative to control mice): 19%
cumulative food intake over the 6-week period ([1]; versus vehicle): not significantly different
food intake during the first week ([1]; versus vehicle): ate significantly more
lean mass or fluid content ([1]; versus vehicle): not significantly different
abdominal obesity of control mice relative to OX-treated mice ([2]; OX i.p. once per day): 3.5 times
body fat accumulated by control mice relative to OX-treated mice ([2]; OX i.p. once per day): twice as much body fat
control mice heavier than OX-treated mice ([2]; OX i.p. once per day): approximately 35%
impact on lean mass or total fluid content ([2]; OX i.p. once per day): no impact
% body fat ([2]; NMR, n=4): 15 ± 1.1%
Fat mass ([2]; NMR, n=4): 3.4 ± 0.4
Fluid content ([2]; NMR, n=4): 7.7 ± 1.5
Lean mass ([2]; NMR, n=4): 18.7 ± 1.1
Lean mass-fat mass ratio ([2]; NMR, n=4): 5.5 ± 0.3
differentiation of wild-type preadipocytes based on lipid accumulation ([3]; 3 days BMP7 or 100 nM OX, then adipogenic medium): enhanced differentiation
adipogenesis of iBAT preadipocytes from 1-day-old mice ([3]; differentiated in the presence of OX): robust adipogenesis within 7 days
differentiation of brown preadipocytes from OXR1-null mice ([3]; in the presence of OX): little differentiation capacity
oxygen consumption, higher (C3H10T1/2 cells; basal conditions): 15 fold
oxygen consumption of treated cells in the presence of oligomycin (C3H10T1/2 cells; oligomycin): efficiently consumed oxygen
share of OX-induced respiration uncoupled from ATP synthesis (C3H10T1/2 cells; oligomycin-insensitive respiration): More than half
amount of visceral fat (obese wild type B6 mice; 4 weeks treatment): considerably decreased
food intake (obese wild type B6 mice; between groups): did not differ significantly
lean mass or fluid content (obese wild type B6 mice; between groups): not significantly different
energy expended, more than the control group (obese wild type B6 mice; calorimetric studies): 17%
oxygen consumed, more than the control group (obese wild type B6 mice; calorimetric studies): 13%
body weight lost (obese wild type B6 mice; end of 4-week treatment): about 10 g
% body fat (obese wild type B6 mice; [5]): 27% and 27 ± 1.4%
Fat mass (obese wild type B6 mice; [5]): 7.9 ± 0.6
Lean mass (obese wild type B6 mice; [5]): 20.4 ± 1.3
Lean mass fat mass ratio (obese wild type B6 mice; [5]): 2.58 ± 0.2
Body weight (obese wild type B6 mice; end of 4-week treatment, OX 10 mg/kg twice weekly, in g (unit assumed)): 29.2 ± 0.8
reduction of whole body fat mass (obese wild type B6 mice; end of the study): 55%
triglycerides within the liver (obese wild type B6 mice; high fat diet, at autopsy): 91 ± 7 µmol/g
iBAT mitochondrial content/activity (obese wild type B6 mice; mitoTracker-stained iBAT sections, relative to controls): elevated mitochondrial content/activity
